Where two headings read alike, the source gives them in different places.
What was measured:
Assay in all cases: cells
[1] = tested on: K562 CRISPRa; set-up: Cell viability dose-response in K562 CRISPRi/CRISPRa cells; IC50 from fitted curve; conditions: Homo sapiens; sheet K562 CRISPRa IC50;; non-targeting control sgRNA; read-out: Cell viability IC50 (nM) / NegCtrl sg
Source text: (§1) To further examine the breadth of linked chemotypes that might be assisted by IFITMs, we designed, synthesized, and characterized a new linked molecular glue inhibitor based on the natural product rocaglamide. Rocaglamide clamps the EIF4A1 helicase to 5’ untranslated regions (UTRs) of target mRNAs to inhibit the translation of downstream sequences ([64]). […] We reasoned that dimerization of rocaglamide through its amide position could be a chemically tractable means to simultaneously engage two proximal EIF4A1-RNA complexes within the cell. We designed a molecule, BisRoc-1 (fig. S9B), that links two rocaglamide monomers together with a linker length (35 heavy atoms) exceeding the distance separating two rocaglamide binding sites in the crystal structure (fig. S9A). […] Additionally, we evaluated the relationship between linker length and IFITM assistance by examining an analog series consisting of BisRoc-1 (PEG11), BisRoc-2 (PEG4), BisRoc-3 (PEG2), and rocaglamide (no linker) (fig. S9E). We treated our K562 CRISPRi and CRISPRa cells with these inhibitors and evaluated differences in potency resulting from IFITM expression modulation, as measured by half-maximal inhibitory concentration (IC50) shift in a cell viability assay (fig. S9, E and F, and data file S7). […] IFITMs assist the cellular activity of diverse linked chemotypes. (A) Heavy atom skeletons of compounds assessed for IFITM assistance (see also fig. S10 for chemical structures). Compounds were categorized as non-linked chemotypes (compounds 1–8, black), linked chemotypes with short linkers (compounds 9–14, gray), or linked chemotypes with long linkers (compounds 15–17, green). (B) Chemical-genetic interaction map of inhibitors in (A) with IFITM1, IFTM2, and IFITM3. Potency, as measured by dose-response IC50 in a cell viability assay (see also Fig. 1F, Fig. 3D, or fig. S9D for example source data), was normalized to that of non-sgRNA-expressing K562 CRISPRi or CRISPRa cells. Physicochemical properties, including molecular weight (MW) and number of rotatable bonds, with their respective traditional thresholds for drug-likeness are indicated (right). Data represent means of three biological replicates. (C) Map of chemical space populated by 304 kinase inhibitors in clinical development (black), 3270 PROTACs reported in the literature (gray), and 3 linked chemotypes described herein (green). Boundaries represent traditional guidelines for drug-likeness.

[2] = tested on: K562 CRISPRi; set-up: Cell viability dose-response in K562 CRISPRi/CRISPRa cells; IC50 from fitted curve; conditions: Homo sapiens, non-targeting control sgRNA, read-out: Cell viability IC50 (nM) / NegCtrl sg
Source text: as §1

[3] = tested on: T1, K562; set-up: dose-response cell viability assay in K562 CRISPRi/CRISPRa CML cells, IC50; conditions: Homo sapiens, read-out: Cell viability IC50 (nM) / No sgRNA
T1 construct: engineered with CRISPRi or CRISPRa machinery, no sgRNA
Source text: To further examine the breadth of linked chemotypes that might be assisted by IFITMs, we designed, synthesized, and characterized a new linked molecular glue inhibitor based on the natural product rocaglamide. Rocaglamide clamps the EIF4A1 helicase to 5’ untranslated regions (UTRs) of target mRNAs to inhibit the translation of downstream sequences ([64]). […] We reasoned that dimerization of rocaglamide through its amide position could be a chemically tractable means to simultaneously engage two proximal EIF4A1-RNA complexes within the cell. We designed a molecule, BisRoc-1 (fig. S9B), that links two rocaglamide monomers together with a linker length (35 heavy atoms) exceeding the distance separating two rocaglamide binding sites in the crystal structure (fig. S9A). […] Additionally, we evaluated the relationship between linker length and IFITM assistance by examining an analog series consisting of BisRoc-1 (PEG11), BisRoc-2 (PEG4), BisRoc-3 (PEG2), and rocaglamide (no linker) (fig. S9E). We treated our K562 CRISPRi and CRISPRa cells with these inhibitors and evaluated differences in potency resulting from IFITM expression modulation, as measured by half-maximal inhibitory concentration (IC50) shift in a cell viability assay (fig. S9, E and F, and data file S7). […] Given the ubiquitous presence of IFITMs in cells, we hypothesized that the cellular uptake of other linked inhibitors in the literature could also be assisted by IFITMs. While not generally as large as the linked chemotypes described above, PROTACs are likewise composed of two chemical entities covalently attached by a flexible tether ([16]). Thus, we included four PROTACs (GMB-475, MZ1, BETd-260, and dBET6) and their non-linked parent inhibitors in an expanded survey of chemical-genetic interactions with IFITMs (Fig. 4A, fig. S10, and table S1). These compounds were evaluated in the same IFITM dependency analysis as the BisRoc linker series (Fig. 4B and data file S7). Using RapaLink-1 as a chemical benchmark, we observed that IFITM1, IFITM2, and IFITM3 overexpression sensitized cells to linked chemotypes (Fig. 4B; compounds 9-17). The inverse finding, resistance to linked chemotypes, resulted from gene knockdown (Fig. 4B). The trend observed in the BisRoc series was corroborated across the 9 bivalent molecules tested (Fig. 4B): the magnitudes of chemical-genetic interactions correlated with linker length which is reflected in inhibitor size (molecular weight) and flexibility (number of rotatable bonds). Linked chemotypes with long linkers were more IFITM-assisted than linked chemotypes with short linkers, and non-linked chemotypes (Fig. 4B; compounds 1-8) were not observed to be assisted by IFITMs (Fig. 4B). Despite their cellular activities, the physicochemical properties of the linked chemotypes largely violate Lipinski’s ([1]) and Veber’s ([2]) classic guidelines (Fig. 4, A to C, and table S1), raising the need for a revised drug design framework that considers IFITM-assisted uptake and other cellular import processes.  Fig. 4. IFITMs assist the cellular activity of diverse linked chemotypes. (A) Heavy atom skeletons of compounds assessed for IFITM assistance (see also fig. S10 for chemical structures). Compounds were categorized as non-linked chemotypes (compounds 1–8, black), linked chemotypes with short linkers (compounds 9–14, gray), or linked chemotypes with long linkers (compounds 15–17, green). (B) Chemical-genetic interaction map of inhibitors in (A) with IFITM1, IFTM2, and IFITM3. Potency, as measured by dose-response IC50 in a cell viability assay (see also Fig. 1F, Fig. 3D, or fig. S9D for example source data), was normalized to that of non-sgRNA-expressing K562 CRISPRi or CRISPRa cells. Physicochemical properties, including molecular weight (MW) and number of rotatable bonds, with their respective traditional thresholds for drug-likeness are indicated (right). Data represent means of three biological replicates. […]

[4] = sheet K562 CRISPRa IC50, no sgRNA

## CO[C@@H]1C[C@@H]2CC[C@@H](C)[C@@](O)(O2)C(=O)C(=O)N2CCCC[C@@H]2C(=O)O[C@H]([C@H](C)C[C@H]2CC[C@H](OCCOCc3cn(CCOCCOCCOCCOCCOCCOCCOCCOCCC(=O)NCCCCn4nc(-c5ccc6oc(N)nc6c5)c5c(N)ncnc54)nn3)[C@H](OC)C2)CC(=O)[C@H](C)/C=C(/C)[C@H](O)[C@@H](OC)C(=O)[C@H](C)C[C@H](C)\C=C/C=C\C=C/1C (stereo in doubt) [RapaLink-1]
[1]
  IC50: 2.07 nM
[2]
  IC50: 1.25 nM
[3]; [4]
  IC50: 2.23 nM
[3]; Cells=K562 CRISPRi, no sgRNA
  IC50: 1.19 nM

## CCn1nc(C2CC2)cc1Nc1nc(C(=O)NCCCCCc2cccc3c2CN(C2CCC(=O)NC2=O)C3=O)nc2[nH]c3cc(-c4c(C)noc4C)c(OC)cc3c12 (centres unmarked) [BETd-260]
[1]
  IC50: 1.04 nM
[2]
  IC50: 3.88 nM
[3]; [4]
  IC50: 1.15 nM
[3]; Cells=K562 CRISPRi, no sgRNA
  IC50: 3.79 nM

## Cc1ncsc1-c1ccc(CNC(=O)[C@@H]2C[C@@H](O)CN2C(=O)[C@@H](NC(=O)COCCOc2ccc(-c3cc(Nc4ccc(OC(F)(F)F)cc4)ncn3)cc2)C(C)(C)C)cc1 [GMB-475]
[1]
  IC50: 179 nM
[2]
  IC50: 249 nM
[3]; [4]
  IC50: 212 nM
[3]; Cells=K562 CRISPRi, no sgRNA
  IC50: 264 nM

## NC(=O)c1cccc(-c2cc(Nc3ccc(OC(F)(F)F)cc3)ncn2)c1 [GNF-2]
[1]
  IC50: 205 nM
[2]
  IC50: 284 nM
[3]; [4]
  IC50: 202 nM
[3]; Cells=K562 CRISPRi, no sgRNA
  IC50: 291 nM

## CCn1nc(C2CC2)cc1Nc1nc(C(=O)NC)nc2[nH]c3cc(-c4c(C)noc4C)c(OC)cc3c12 [HJB97]
[1]
  IC50: 9.74 nM
[2]
  IC50: 41.5 nM
[3]; [4]
  IC50: 11.6 nM
[3]; Cells=K562 CRISPRi, no sgRNA
  IC50: 46.8 nM

## Cc1sc2c(c1C)C(c1ccc(Cl)cc1)=N[C@@H](CC(=O)OC(C)(C)C)c1nnc(C)n1-2 [JQ1]
[1]
  IC50: 22.2 nM
[2]
  IC50: 121 nM
[3]; [4]
  IC50: 24.4 nM
[3]; Cells=K562 CRISPRi, no sgRNA
  IC50: 118 nM

## Cc1ncsc1-c1ccc(CNC(=O)[C@@H]2C[C@@H](O)CN2C(=O)[C@@H](NC(=O)COCCOCCOCCNC(=O)C[C@@H]2N=C(c3ccc(Cl)cc3)c3c(sc(C)c3C)-n3c(C)nnc32)C(C)(C)C)cc1 [MZ1]
[1]
  IC50: 33.3 nM
[2]
  IC50: 146 nM
[3]; [4]
  IC50: 31.4 nM
[3]; Cells=K562 CRISPRi, no sgRNA
  IC50: 135 nM

## CO[C@H]1C[C@@H]2CC[C@@H](C)[C@@](O)(O2)C(=O)C(=O)N2CCCC[C@H]2C(=O)O[C@H]([C@H](C)C[C@@H]2CC[C@@H](O)[C@H](OC)C2)CC(=O)[C@H](C)/C=C(\C)[C@@H](O)[C@@H](OC)C(=O)[C@H](C)C[C@H](C)/C=C/C=C/C=C/1C [Rapamycin]
[1]
  IC50: 0.376 nM
[2]
  IC50: 0.776 nM
[3]; [4]
  IC50: 0.356 nM
[3]; Cells=K562 CRISPRi, no sgRNA
  IC50: 0.743 nM

## COc1ccc([C@@]23Oc4cc(OC)cc(OC)c4[C@]2(O)[C@H](O)[C@H](C(=O)N(C)C)[C@H]3c2ccccc2)cc1 [Rocaglamide]
[1]
  IC50: 6.97 nM
[2]
  IC50: 6.86 nM
[3]; [4]
  IC50: 7.65 nM
[3]; Cells=K562 CRISPRi, no sgRNA
  IC50: 7.23 nM

## CC(C)n1nc(-c2ccc3oc(N)nc3c2)c2c(N)ncnc21 [Sapanisertib]
[1]
  IC50: 15.3 nM
[2]
  IC50: 24.4 nM
[3]; [4]
  IC50: 14.2 nM
[3]; Cells=K562 CRISPRi, no sgRNA
  IC50: 24.6 nM

## Cc1sc2c(c1C)C(c1ccc(Cl)cc1)=N[C@@H](CC(=O)NCCCCCCCCNC(=O)COc1cccc3c1C(=O)N(C1CCC(=O)NC1=O)C3=O)c1nnc(C)n1-2 (some centres unmarked) [dBET6]
[1]
  IC50: 3.04 nM
[2]
  IC50: 12.6 nM
[3]; [4]
  IC50: 3.26 nM
[3]; Cells=K562 CRISPRi, no sgRNA
  IC50: 11.7 nM

— article PMC9924227, “IFITM proteins assist cellular uptake of diverse linked chemotypes” (Science (New York, N.Y.), 2022)
